We go through one compound from patent US9724380B2, “Method and compositions for synchronizing time of insemination in gilts” (JBS UNITED ANIMAL HEALTH II LLC, priority 2012, dated 2017).

In assay [1] the test system is gilts. Kind of assay: Example 1: estrus observation (boar exposure, back pressure) after triptorelin gel. Particulars: 200 mcg T at 120 h post-MATRIX; raw average; PTK 1-07 (rep 3). In kind it is in vivo, swine. The method, then: All gilts were individually fed MATRIX® as a top-dress for 14 days at the recommended rate of 15 mg/gilt/day. Gilts were withdrawn from MATRIX® feeding (last top feed in the morning on Day 0) and allotted to treatments. Controls were treated with a 1.2% methylcellulose gel formulation without triptorelin at 96 hours following MATRIX® withdrawal (last top-dress). The remaining gilts received 200 mcg triptorelin, as the acetate, in a 1.2% methylcellulose gel formulation intravaginally at various times after MATRIX® withdrawal. The four treatments were: 1) vehicle gel (VG) treatment at 96 hours after MATRIX® withdrawal, 2) triptorelin gel (TG) treatment at 96 hours after MATRIX® withdrawal, 3) TG treatment at 120 hours after MATRIX® withdrawal and 4) TG treatment at 144 hours after MATRIX® withdrawal. All gilts were monitored for their estrous and ovulatory status as described below. Gilts included in replicate 1 were selected from terminal line commercial production gilts located in grow/finish barns. Sexual maturity, as indicated by one or more estrous periods, was not verified prior to the start of MATRIX® feeding. Gilts included in replicate 2 were selected from a maternal line gilt population. Sexual maturity was verified by at least one estrous period verified and recorded prior to starting MATRIX® feeding. […]
Data were analyzed using the Mixed Models procedures of SAS. […]

The subject of assay [2] is gilts. Kind of assay: Example 5: ovulation monitored by transrectal ultrasonography after 100, 200 or 400 mcg triptorelin gel intravaginally at 120 h after MATRIX withdrawal. Format: in vivo, swine. To be noted: for Percentage ovulated by 48 hours: blood-sampled subpopulation; for % of Sows Ovulating: raw average, PTK 2-07. The method, then: All gilts were individually fed MATRIX® as a top-dress for 14 or 15 days at the recommended rate of 15 mg/gilt/day. Gilts were withdrawn from MATRIX® feeding (last top-dress in the morning on Day 0) and allocated to each of the following treatments. Controls were vehicle gel treated (vehicle gel without triptorelin) at 120 (+/−2) hours following MATRIX® withdrawal (last top dress). The other gilts were given 100, 200 or 400 mcg triptorelin as the acetate in a methylcellulose gel formulation 120 (+/−2) hours following MATRIX® withdrawal. The four treatments were: • 1. Vehicle gel (VG): vehicle gel without triptorelin at 120 (+/−2) hours after MATRIX® withdrawal. • 2. TG 100: 100 mcg (2 mL 50 mcg/mL) triptorelin gel at 120 (+/−2) hours after MATRIX® withdrawal. • 3. TG 200: 200 mcg (2 mL 100 mcg/mL) triptorelin gel at 120 (+/−2) hours after MATRIX® withdrawal. • 4. TG 400: 400 mcg (2 mL 200 mcg/mL) triptorelin gel at 120 (+/−2) hours after MATRIX® withdrawal.
Triptorelin (pGlu-His-Trp-Ser-Tyr-D-Trp-Leu-Arg-Pro-Gly-NH2) was supplied in the acetate form, from Bachem, Torrance, Calif. (Item H-4075 CGMP grade). Triptorelin gel (100-400 mcg/2 mL dose) was formulated by Argenta (Auckland, NZ) in a gel composed of Methocel Premium A4000 (Dow Chemical), citrate buffer (pH 5.5), NaCl, methionine, and methyl and propyl parabens. Fifty-four milliliters of triptorelin gel (100 mcg triptorelin acetate/mL) was packaged in Amber Borosilicate Glass Serum Vials (610206-50) with a Gray Butyl Pharmaceutical Serum Vial Stopper (73828A-SS) with a Standard Aluminum Seal (SAS20NAT). […] MATRIX® was supplied as the US commercially available form.
Ovulation was monitored twice on Day 5 (8 hours and 16 hours post-treatment) and every 8 hours on Day 6 and Day 7 or until ovulation was confirmed or 176 hours following last MATRIX® feeding. The ovulatory status of all gilts was monitored by transrectal ultrasonography. An Aloka 500 ultrasound machine is used for this purpose, with a 7.5 MHz linear array transducer attached to a fixed-angle PVC stabilizing rod to facilitate insertion into the rectum. The transducer and PVC rod are coated with a gynecological lubricant and gently inserted into the rectum until the ovaries can be visualized, one at a time. The diameters of the three largest follicles were recorded (to the nearest 0.1 mm) at each scanning. A gilt was declared to have ovulated when the number of large follicles (≧6.5 mm) fell to less than 3.
A single 2 mL dose of triptorelin gel or vehicle gel was deposited within approximately 1-2 cm posterior to the cervix with a catheter similar to those used for artificial insemination. The dose was delivered using a standard multi-dose applicator attached to the catheter. A new disposable sheath, which surrounds the catheter, was used for each gilt.

As for `CC(C)C[C@H](NC(=O)[C@@H](Cc1c[nH]c2ccccc12)NC(=O)[C@H](Cc1ccc(O)cc1)NC(=O)[C@H](CO)NC(=O)[C@H](Cc1c[nH]c2ccccc12)NC(=O)[C@H](Cc1c[nH]cn1)NC(=O)[C@@H]1CCC(=O)N1)C(=O)N[C@@H](CCCNC(=N)N)C(=O)N1CCC[C@H]1C(=O)NCC(N)=O` [T, pGlu-His-Trp-Ser-Tyr-D-Trp-Leu-Arg-Pro-Gly-NH2], in assay [1], the “Estrous Expression (%)” value amounted to 100.0%. Further, the “Percentage ovulated by 48 hours” value in assay [2] (100 mcg T (n = 6)), in assay [2] (200 mcg T (n = 7)) and in assay [2] (400 mcg T (n = 6)) was 100% in each case. For the same compound, the “% of Sows Ovulating” value came out at 0.0% in assay [2] (100 mcg T, 128 h post-MATRIX (8 h post-T)); 5.0% in assay [2] (100 mcg T, 136 h post-MATRIX (16 h post-T)); 20.0% in assay [2] (100 mcg T, 144 h post-MATRIX (24 h post-T)); 30.0% in assay [2] (100 mcg T, 152 h post-MATRIX (32 h post-T)); 60.0% in assay [2] (100 mcg T, 160 h post-MATRIX (40 h post-T)); 95.0% in assay [2] (100 mcg T, 168 h post-MATRIX (48 h post-T)). The “% of Sows Ovulating” value in assay [2] (100 mcg T, 176 h post-MATRIX (56 h post-T)) stood at 100.0%; in assay [2] (200 mcg T, 128 h post-MATRIX (8 h post-T)) it was 0.0%; in assay [2] (200 mcg T, 136 h post-MATRIX (16 h post-T)), 0.0%; in assay [2] (400 mcg T, 128 h post-MATRIX (8 h post-T)), 4.5%; in assay [2] (400 mcg T, 136 h post-MATRIX (16 h post-T)), 9.1%; in assay [2] (400 mcg T, 168 h post-MATRIX (48 h post-T)), 100.0%. For the same compound, in assay [2] (400 mcg T, 176 h post-MATRIX (56 h post-T)), the “% of Sows Ovulating” value was 100.0%.
